# Laboratory results published in patent US20240025885A1, “TRIAZINE DERIVATIVES AND METHODS OF USE THEREOF” (priority 2022, published 2024).
# Where two headings read alike, the source gives them in different places.
# Key:
# [1] = test system: SARS-CoV-2 Omicron hCoV-19/USA/MD HP20874/2021 (B.1.1.529) strain; assay: In vitro antiviral activity against SARS-CoV-2 Omicron B.1.1.529 in Calu-3 cells (NP ELISA, percent virus reduction); type: cell-based; conditions: Severe acute respiratory syndrome coronavirus 2, Calu-3, 48 h
# [2] = test system: hCoV-19/USA/Chicago IL/2022 (BA.5.2); assay: In vitro antiviral activity against SARS-CoV-2 BA.5.2 in Calu-3 cells (NP ELISA, percent virus reduction); type: cell-based; conditions: Severe acute respiratory syndrome coronavirus 2, Calu-3, 48 h
# in vivo [3] = assay: in vivo
# Description: At Model Pharmacokinetic Properties Testing
# (§1) Oral administration: the compound was administered with a volume ratio of Solutol:PEG400:Tween80:Saline=10:40:2:48 at a dose of 10 mg/kg. blood was taken continuously from the fundus venous plexus at 0.25 h, 0.5 h, 1 h, 2 h, 4 h, 8 h, 10 h, 12 h, and 24 h after administration in EP tubes containing EDTA, centrifuged at 8000 rpm/min for 5 min and then the upper layer of plasma was frozen at −80° C. and stored for LC-MS/MS analysis.
# (§2) Intravenous administration: the compound was administered with a volume ratio of 10% DMSO/30% PEG400/60% water at a dose of 1 mg/kg). At 0.0833 h, 0.25 h, 0.5 h, 1 h, 2 h, 4 h, 8 h, 12 h and 24 h after drug administration, blood was serially collected from the fundus venous plexus in EP tubes containing EDTA, centrifuged at 8000 rpm/min for 5 min and then the upper layer of plasma was frozen at −80° C. and stored for LC-MS/MS analysis.
# The pharmacokinetic parameters were calculated using WinNonlin software base on the blood concentration-time data obtained from the tests.
# in vivo [4] = conditions: crab-eating monkey, plasma
# Description: Crab-Eating Monkey Pharmacokinetic Properties Testing
# as §1, with “of 2” for “of 10”, “mg/kg. The” for “mg/kg.”, “continuously” for “continuously from the fundus venous plexus”, “12 h” for “12 h,”, “after drug” for “after”, “5 min,” for “5 min”
# as §2, with “with” for “with a volume ratio of”, “The blood was taken continuously at” for “At”, “administration” for “administration, blood was serially collected from the fundus venous plexus”
# The pharmacokinetic parameters were calculated from the blood concentration-time data obtained from the tests using WinNonlin software.
# [5] = intravenous, 1 mg/kg, read-out: Intravenous injection AUClast
# [6] = oral, 2 mg/kg, read-out: Oral AUClast
Structure (SMILES),EC50 [1] [nM],EC50 [2] [nM],"AUC(0-t) (in vivo [3]; iv, 1 mg/kg) [ng·h/mL]","AUC(0-t) (in vivo [3]; po, 10 mg/kg) [ng·h/mL]",AUC(0-t) (in vivo [4]; [5]) [ng·h/mL],AUC(0-t) (in vivo [4]; [6]) [ng·h/mL]
[2H]C([2H])([2H])n1cc2cc(Nc3nc(=O)n(Cc4cscn4)c(=O)n3Cc3cc(F)c(F)cc3F)c(Cl)cc2n1 [Compound 16],16,22,7040,139000,3680,10100
[2H]C([2H])([2H])n1cc2cc(Nc3nc(=O)n(Cc4ccon4)c(=O)n3Cc3cc(F)c(F)cc3F)c(Cl)cc2n1 [Compound 17],30,16,25400,189000,41000,64300
[2H]C([2H])([2H])n1cc2cc(Nc3nc(=O)n(Cc4cocn4)c(=O)n3Cc3cc(F)c(F)cc3F)c(Cl)cc2n1 [Compound 18],,,,,4890,10400
Cn1cc2cc(Nc3nc(=O)n(Cc4cocn4)c(=O)n3Cc3cc(F)c(F)cc3F)c(Cl)cc2n1 [Compound 26],,,7790,14100,,
[2H]C([2H])([2H])n1cc2cc(Nc3nc(=O)n(Cc4cscn4)c(=O)n3Cc3cc(F)c(F)c(F)c3)c(Cl)cc2n1 [Compound 40],23,40,9880,134000,36500,62400
[2H]C([2H])([2H])n1cc2cc(Nc3nc(=O)n(Cc4ccon4)c(=O)n3Cc3cc(F)c(F)c(F)c3)c(Cl)cc2n1 [Compound 41],31,33,26500,234000,40600,63300
O=c1nc(Nc2cc3cn(CCO)nc3cc2Cl)n(Cc2cc(F)c(F)cc2F)c(=O)n1Cc1ccon1 [Compound 70],18,21,,,4870,9880
Cn1cc2cc(Nc3nc(=O)n(Cc4nccs4)c(=O)n3Cc3cc(F)c(F)cc3F)c(Cl)cc2n1 [Compound 71],34,45,,,,
Cn1cc2cc(Nc3nc(=O)n(Cc4ncsn4)c(=O)n3Cc3cc(F)c(F)cc3F)c(Cl)cc2n1 [Compound 78],67,59,,,,
O=c1nc(Nc2cc3cn(CCO)nc3cc2Cl)n(Cc2cc(F)c(F)cc2F)c(=O)n1Cc1cscn1 [Compound 97],,,5670,7660,,
[2H]c1c2cc(Nc3nc(=O)n(Cc4ccon4)c(=O)n3Cc3cc(F)c(F)cc3F)c(Cl)cc2nn1C [Compound 107],,,21400,209000,,
